Results published in ChEMBL document CHEMBL1145817, “Conformationally constrained analogues of diacylglycerol. 19. Synthesis and protein kinase C binding affinity of diacylglycerol lactones bearing an N-hydroxylamide side chain” (J Med Chem, 2003).

Molecular target: Protein kinase C alpha type (Homo sapiens, UniProt P17252)
Assay: Binding affinity for Protein kinase C alpha C1a or C1b domain

SMILES	Ki [µM]
CC(C)CC(C/C=C1\CC(CO)(CN(O)C(=O)C(C)(C)C)OC1=O)CC(C)C (configuration not stated)	6.79
CC(C)CC(C/C=C1/CC(CO)(CN(O)C(=O)C(C)(C)C)OC1=O)CC(C)C (configuration not stated)	6.98
